Experimental data: patent publication US20180344768A1, “NK CELL-BASED THERAPY” (Onkimmune Limited, priority 2016, published 2018)
Where two headings read alike, the source gives them in different places.

Assays:
[1] = tested on: DR5; conditions: 24 hours
Description: Bortezomib was bought from Millennium Pharmaceuticals. Mouse anti-human DR5-AF647 (catalog number: 565498) was bought from BD Pharmingen. The stained cell samples were analyzed on BD FACS Canto II.

[2] = tested on: MM1.S cells; experiment: Bortezomib-induced sensitization of MM1.S cells to KHYG-1 cells expressing TRAIL variant; format: cell-based; conditions: MM1.S pretreated with 2.5 nM for 24 hours, 1:1 ratio, 12 hours co-culture
Description: (2) 6 hours after electroporation of TRAIL variant mRNA, KHYG-1 cells were then cultured with MM cells in 12-well plate. After washing, cell concentrations were adjusted to 1×10^6/mL, before mixing KHYG-1 and MM1.S cells at 1:1 ratio to culture for 12 hours. (3) Flow cytometric analysis of the cytotoxicity of KHYG-1 cells was carried out. The co-cultured cells were collected, washed and then stained with CD2-APC antibody (5 uL/test), AnnexinV-FITC (5 uL/test) and SYTOX-Green (5 uL/test) using AnnexinV binding buffer. (4) Data were further analyzed using FlowJo 7.6.2 software. CD2-negative population represents MM.1S cells. KHYG-1 cells are strongly positive for CD2. Finally, the AnnexinV-FITC and SYTOX-Green positive cells in the CD2-negative population were analyzed.

[3] = tested on: perforin; experiment: CMA-induced reduction of perforin expression in KHYG-1 cells; format: cell-based, human; conditions: 100 nM for 2 hours
Description: Mouse anti-human perforin-AF647 (catalog number: 563576) was bought from BD Pharmingen. Concanamycin A (catalog number: SC-202111) was bought from Santa Cruz Biotechnology. The stained cell samples were analyzed using a BD FACS Canto II. […] (2) KHYG-1 cells (6 hours after electroporation, cultured in penicillin/streptomycin free RPMI1640 medium) were further treated with 100 nM CMA or equal volume of vehicle (DMSO) for 2 hours. (3) The cells were collected (1×10^6 cells/test) by centrifugation (1500 rpm×5 minutes) and the supernatant was aspirated. (4) The cells were fixed in 4% paraformaldehyde in PBS solution at room temperature for 15 minutes. (5) The cells were washed with 4 mL of FACS Buffer (PBS, 0.5-1% BSA, 0.1% sodium azide) twice. (6) The cells were permeabilized with 1 mL of PBS/0.1% saponin buffer for 30 minutes at room temperature. (7) The cells were washed with 4 mL of PBS/0.1% saponin buffer. (8) The cells were re-suspended in 100 uL of PBS/0.1% saponin buffer, before adding 5 uL of the antibody to each tube and incubating for 30 minutes on ice. (9) The cells were washed with PBS/0.1% saponin buffer 3 times by centrifugation at 1500 rpm for 5 minutes. (10) The cells were re-suspended in 500 uL of ice cold FACS Buffer and kept in the dark on ice or at 4° C. in a fridge briefly until analysis. (11) The cells were analyzed on the flow cytometer (BD FACS Canto II). […]

[4] = tested on: KHYG-1 cells; experiment: KHYG-1 cell viability after CMA treatment; format: cell-based; conditions: 100 nM CMA or vehicle
[5] = tested on: MM1.S cells; experiment: Cytotoxicity of KHYG-1 cells with/without TRAIL variant in the presence of CMA; format: cell-based; conditions: 100 mM CMA for 2 hours, 1:1 ratio, 12 hours
Description: KHYG-1 cells were transfected with the TRAIL variant (TRAIL D269H/E195R), as described above in Example 6. (1) MM1.S cells were used as target cells. (2) 6 hours after electroporation of TRAIL mRNA, KHYG-1 cells were treated with […] CMA or an equal volume of vehicle for 2 hours. […] (5) The KHYG-1 and MM1.S cells were mixed at 1:1 ratio and co-cultured for 12 hours. (6) Flow cytometric analysis of the cytotoxicity of KHYG-1 cells was carried out. The co-cultured cells were washed and stained with CD2-APC antibody (5 uL/test). (7) After washing, further staining was performed with AnnexinV-FITC (5 uL/test) and SYTOX-Green (5 uL/test) using AnnexinV binding buffer. (8) Data were further analyzed using FlowJo 7.6.2 software. CD2-negative population represents MM1.S cells. KHYG-1 cells are strongly positive for CD2. The AnnexinV-FITC and SYTOX-Green positive cells in CD2-negative population were then analyzed.

[6] = biological target: DR4 (Homo sapiens, UniProt O00220); conditions: surface plasmon resonance; cited from earlier work
[7] = biological target: T1, decoy receptor DcR1 (Homo sapiens, UniProt O14798); conditions: surface plasmon resonance; cited from earlier work
T1 sequence (O14798 26-236): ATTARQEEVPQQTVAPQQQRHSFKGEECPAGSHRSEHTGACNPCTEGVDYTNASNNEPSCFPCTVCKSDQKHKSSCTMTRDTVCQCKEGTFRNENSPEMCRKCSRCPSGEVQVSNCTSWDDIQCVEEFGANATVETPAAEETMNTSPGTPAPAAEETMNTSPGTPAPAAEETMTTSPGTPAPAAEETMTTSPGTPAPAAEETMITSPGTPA

[8] = tested on: CTLA4 gene; experiment: gRNA cleavage activity, T7E1 mismatch detection assay in K562 cells; format: cell-based, human; conditions: CRISPR/Cas9, agarose gel after T7E1
Text: (§1) Two gRNA candidates were selected for each target gene and their cleavage efficacies in K562 cells determined. The sequences of the gRNA candidates are shown in Table 1 and the Protospacer Adjacent Motif (PAM) relates to the last 3 bases of the sequence. The flanking regions of the gRNA sequences on the LIR2 gene (SEQ ID NO: 1; amino acid translation SEQ ID NO: 2) and the CTLA4 gene (SEQ ID NO: 7; amino acid translation SEQ ID NO: 8) are shown in FIGS. 1 and 2, respectively.
(§2) K562 cells were transfected with the prepared gRNA constructs (FIG. 3) and subsequently harvested for PCR amplification. The presence of GFP expression was used to report successful incorporation of the gRNA construct into the K562 cells. This confirmed expression of the Cas9 gene and therefore the ability to knock out expression of the LIR2 and CTLA4 genes.
(§3) The cleavage activity of the gRNA constructs was determined using an in vitro mismatch detection assay. T7E1 endonuclease I recognizes and cleaves non-perfectly matched DNA, allowing the parental LIR2 and CTLA4 genes to be compared to the mutated genes following CRISPR/Cas9 transfection and non-homologous end joining (NHEJ).

[9] = tested on: LIR2 gene; experiment: as above; format: cell-based, human; conditions: CRISPR/Cas9, agarose gel after T7E1
Text: as §1, §2, §3
The three bands corresponding to each mutation relate to the parental gene and the two resulting strands following detection of a mismatch in the DNA sequence after transfection.

[10] = biological target: DR5 (Homo sapiens, UniProt O14763); conditions: D269H/E195R mutation vs wildtype TRAIL; cited from earlier work
[11] = biological target: T2, DcR1 (Homo sapiens, UniProt O14798); conditions: D269H/E195R mutation vs wildtype TRAIL; cited from earlier work
T2 sequence (O14798 26-236): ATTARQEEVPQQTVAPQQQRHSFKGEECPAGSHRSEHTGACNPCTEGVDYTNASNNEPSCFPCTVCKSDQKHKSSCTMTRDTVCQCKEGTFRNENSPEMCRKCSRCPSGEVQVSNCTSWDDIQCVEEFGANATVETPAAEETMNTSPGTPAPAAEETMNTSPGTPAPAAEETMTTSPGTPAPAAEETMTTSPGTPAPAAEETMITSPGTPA

[12] = biological target: T3, DcR2 (Homo sapiens, UniProt Q9UBN6); conditions: D269H/E195R mutation vs wildtype TRAIL; cited from earlier work
T3 sequence (Q9UBN6 56-386): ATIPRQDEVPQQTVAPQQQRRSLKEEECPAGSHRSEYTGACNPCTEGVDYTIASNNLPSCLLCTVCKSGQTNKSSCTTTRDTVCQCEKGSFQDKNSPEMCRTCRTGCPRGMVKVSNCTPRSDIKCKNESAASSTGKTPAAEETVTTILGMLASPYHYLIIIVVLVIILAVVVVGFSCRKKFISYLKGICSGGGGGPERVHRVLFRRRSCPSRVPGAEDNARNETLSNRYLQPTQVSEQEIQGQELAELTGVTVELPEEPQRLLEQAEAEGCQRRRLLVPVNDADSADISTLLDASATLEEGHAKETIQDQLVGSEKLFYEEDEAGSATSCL

For `CC(C)C[C@H](NC(=O)[C@H](Cc1ccccc1)NC(=O)c1cnccn1)B(O)O` [Bortezomib], which DR5 expression ([1]; MM1.S cells, low dose) is on record?
Its DR5 expression is “increase”.

And the DR5 expression ([1]; MM cells, high doses)?
The DR5 expression was “could not be upregulated”.

What about the DR5 expression ([1]; RPMI8226 cells, low dose) of the same molecule?
The DR5 expression was “increase”.

And the “sensitivity of MM cells to KHYG-1 cells expressing the TRAIL variant” value [2]?
The value was “induced sensitivity”.

For `C/C=C/[C@H]1O[C@@](O)([C@@H](C)[C@H](O)[C@H](C)[C@H]2OC(=O)/C(OC)=C/C(C)=C/[C@@H](C)[C@@H](O)[C@@H](CC)[C@@H](O)[C@H](C)C/C(C)=C/C=C/[C@@H]2OC)C[C@@H](O[C@H]2C[C@@H](O)[C@H](OC(N)=O)[C@@H](C)O2)[C@@H]1C` [CMA, Concanamycin A], which perforin expression level [3] is on record?
The perforin expression level was “significantly decreased”.

And the “viability of KHYG-1 cells” value [4]?
The value was “no negative effects”.

What about the “effect of CMA on cytotoxic activity of NK cells expressing TRAIL variant” value [5] of the same molecule?
Its value is “unable to significantly diminish”.

For “Wildtype TRAIL: wildtype TRAIL ligand (CD253)”, which Kd [6] is on record?
The Kd was greater than 2 nM.

What about the Kd [7] of the same molecule?
The Kd was greater than 20 nM.

With “g7 gRNA: gRNA candidate targeting hCTLA4, CACTCACCTTTGCAGAAGACAGG (SEQ ID NO: 9) (expressed or natural sequence; listed as Homo sapiens)” as the molecule, how does the “gRNA cleavage efficiency at CTLA4 (T7E1)” value [8] read?
Its value is 32%.

For “g9 gRNA: gRNA candidate targeting hLIR2, GAGTCACAGGTGGCATTTGGCGG (SEQ ID NO: 3) (expressed or natural sequence; listed as Homo sapiens)”, which “gRNA cleavage efficiency (LIR2 knockout)” value [9] is on record?
Its value is 11%.

With “g15 gRNA: gRNA candidate targeting hCTLA4, CCTTGTGCCGCTGAAATCCAAGG (SEQ ID NO: 10) (expressed or natural sequence; listed as Homo sapiens)” as the molecule, how does the “gRNA cleavage efficiency at CTLA4 (T7E1)” value [8] read?
The value was 26%.

Which “gRNA cleavage efficiency (LIR2 knockout)” value [9] does the source give for “g18 gRNA: gRNA candidate targeting hLIR2, CGAATCGCAGGTGGTCGCACAGG (SEQ ID NO: 4) (expressed or natural sequence; listed as Homo sapiens)” here?
Its value is 10%.

B1: TRAIL variant: described in WO 2009/077857; encoded by the wildtype TRAIL gene containing the D269H/E195R mutation (protein)
chain: MAMMEVQGGPSLGQTCVLIVIFTVLLQSLCVAVTYVYFTNELKQMQDKYSKSGIACFLKEDDSYWDPNDEESMNSPCWQVKWQLRQLVRKMILRTSEETISTVQEKQQNISPLVRERGPQRVAAHITGTRGRSNTLSSPNSKNEKALGRKINSWESSRSGHSFLSNLHLRNGELVIHEKGFYYIYSQTYFRFQERIKENTKNDKQMVQYIYKYTSYPDPILLMKSARNSCWSKDAEYGLYSIYQGGIFELKENDRIFVSVTNEHLIDMHHEASFFGAFLVG
For B1, which “affinity for DR5” value [10] is on record?
The value was “significantly increases the affinity”.

What about the “affinity for decoy receptor DcR1” value [11] of the same molecule?
The value was “reducing the affinity”.

And the “affinity for decoy receptor DcR2” value [12]?
Its value is “reducing the affinity”.
